Consider 68 sequences from the supplement of paper PMC11208160.
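Also: IS621 bridge recombinase in Escherichia coli cells against a fixed T5 target plasmid.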

The series in a line: recombinant UMI read abundance after kanamycin selection (control-corrected) (log10(CPM+1)); higher = more efficient recombination; extreme values may be limits of the assay; sequences stand for … in AGTGCAGAGAAAATCGGCCAGTTTTCTCTGCCTGCAGTCCGCATGCCGTGGGACCCCTTGGGTTCTAACCTGTTGCCTAGATTTATGCAGCGGACTGCCTTTCTCCCAAAGTGATAAACCGG…AGGTTGGTTTCACT; site = the 11-nt donor. The method, boiled down:
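Sequencing read counts were converted to CPM, averaged over two replicates and scaled by control-derived factors. Results are given as log10(CPM+1). The reads covered the donor–target junction of recombinant UMIs from a pooled Escherichia coli screen of donor and donor-binding-loop pairs for the IS621 bridge recombinase.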
Regarding “GGAGCACCATGGACCGGTTTTCCCGGTAATCCGTATTTGCA (site GGAGCACCTTG)”, the “recombinant UMI read abundance (log10)” value was 0.

For “GGAGCACCATGGACCGGTTTTCCCGGTAATCCGTATTTGCA (site GGCGCACCTTG)”, the “recombinant UMI read abundance (log10)” value was found to be 0.

Consider “GGAGCACCATGGACCGGTTTTCCCGGTAATCCGTATTTGCA (site GGGGCACCTTG)”, for which the “recombinant UMI read abundance (log10)” value was found to be 0.

For “GGAGCACCATGGACCGGTTTTCCCGGTAATCCGTATTTGCA (site GGTGCACCTTG)”, the “recombinant UMI read abundance (log10)” value worked out at 0.00599.

Consider “GGAGCCCCATGGACCGGTTTTCCCGGTAATCCGTATTTGGG (site GGAGCCCCTCC)”, for which the “recombinant UMI read abundance (log10)” value amounted to 0.00903.

Turning to “GGAGGCCCATGGACCGGTTTTCCCGGTAATCCGTATTTGCC (site GGAGGCCCTGG)”, the “recombinant UMI read abundance (log10)” value worked out at 0.

Turning to “GGAGGTACATGGACCGGTTTTCCCGGTAATCCGTATTTGAC (site GAAGGTACTGT)”, the “recombinant UMI read abundance (log10)” value worked out at 0.759.

As for “GGAGGTACATGGACCGGTTTTCCCGGTAATCCGTATTTGAC (site GCAGGTACTGT)”, the “recombinant UMI read abundance (log10)” value came out at 0.553.

Consider “GGAGGTACATGGACCGGTTTTCCCGGTAATCCGTATTTGAC (site GGAGGTACTGT)”, for which the “recombinant UMI read abundance (log10)” value came to 1.39.

Regarding “GGAGGTACATGGACCGGTTTTCCCGGTAATCCGTATTTGAC (site GTAGGTACTGT)”, the “recombinant UMI read abundance (log10)” value worked out at 0.

For the sequence “GGAGTAGCATGGACCGGTTTTCCCGGTAATCCGTATTTGGT (site GGAGTAGCTAC)”, the “recombinant UMI read abundance (log10)” value was determined as 1.18.

Regarding “GGAGTAGCATGGACCGGTTTTCCCGGTAATCCGTATTTGGT (site GGAGTCGCTAC)”, the “recombinant UMI read abundance (log10)” value stood at 0.0165.

Consider “GGAGTAGCATGGACCGGTTTTCCCGGTAATCCGTATTTGGT (site GGAGTGGCTAC)”, for which the “recombinant UMI read abundance (log10)” value turned out to be 0.49.

For “GGAGTAGCATGGACCGGTTTTCCCGGTAATCCGTATTTGGT (site GGAGTTGCTAC)”, the “recombinant UMI read abundance (log10)” value worked out at 0.

As to “GGAGTATCATGGACCGGTTTTCCCGGTAATCCGTATTTGAC (site CTAGTATCTGT)”, the “recombinant UMI read abundance (log10)” value is 0.

For the sequence “GGAGTATCATGGACCGGTTTTCCCGGTAATCCGTATTTGAC (site GGAGTATCTGT)”, the “recombinant UMI read abundance (log10)” value came to 2.66.

As for “GGAGTCGCATGGACCGGTTTTCCCGGTAATCCGTATTTGCG (site GAAGTCGCTCG)”, the “recombinant UMI read abundance (log10)” value stood at 0.00287.

With “GGAGTCGCATGGACCGGTTTTCCCGGTAATCCGTATTTGCG (site GCAGTCGCTCG)”, the “recombinant UMI read abundance (log10)” value worked out at 0.021.

Consider “GGAGTCGCATGGACCGGTTTTCCCGGTAATCCGTATTTGCG (site GGAGTCGCTCG)”, for which the “recombinant UMI read abundance (log10)” value came to 1.28.

As for “GGAGTCGCATGGACCGGTTTTCCCGGTAATCCGTATTTGCG (site GTAGTCGCTCG)”, the “recombinant UMI read abundance (log10)” value is 0.0226.

“GGAGTCTCATGGACCGGTTTTCCCGGTAATCCGTATTTGTC (site GGAGTCTCTGA)”: the “recombinant UMI read abundance (log10)” value came to 2.36.

As to “GGAGTGCCATGGACCGGTTTTCCCGGTAATCCGTATTTGGA (site GGAGTGCCTTC)”, the “recombinant UMI read abundance (log10)” value stood at 0.0188.

Consider “GGAGTGTCATGGACCGGTTTTCCCGGTAATCCGTATTTGGT (site GGAGTGACTAC)”, for which the “recombinant UMI read abundance (log10)” value is 0.192.

With “GGAGTGTCATGGACCGGTTTTCCCGGTAATCCGTATTTGGT (site GGAGTGCCTAC)”, the “recombinant UMI read abundance (log10)” value turned out to be 0.00939.

On to “GGAGTGTCATGGACCGGTTTTCCCGGTAATCCGTATTTGGT (site GGAGTGGCTAC)”, for which the “recombinant UMI read abundance (log10)” value was 0.0122.

Regarding “GGAGTGTCATGGACCGGTTTTCCCGGTAATCCGTATTTGGT (site GGAGTGTCTAC)”, the “recombinant UMI read abundance (log10)” value is 1.71.

As for “GGATAATCATGGACCGGTTTTCCCGGTAATCCGTATTTGAA (site GGATAATCTTT)”, the “recombinant UMI read abundance (log10)” value came out at 2.84.

For “GGATAGACATGGACCGGTTTTCCCGGTAATCCGTATTTGAC (site GGATAGACTGA)”, the “recombinant UMI read abundance (log10)” value was 0.

As to “GGATAGACATGGACCGGTTTTCCCGGTAATCCGTATTTGAC (site GGATAGACTGC)”, the “recombinant UMI read abundance (log10)” value turned out to be 0.822.

“GGATAGACATGGACCGGTTTTCCCGGTAATCCGTATTTGAC (site GGATAGACTGG)”: the “recombinant UMI read abundance (log10)” value was 1.9.

With “GGATAGACATGGACCGGTTTTCCCGGTAATCCGTATTTGAC (site GGATAGACTGT)”, the “recombinant UMI read abundance (log10)” value amounted to 3.21.

With “GGATAGACATGGACCGGTTTTCCCGGTAATCCGTATTTGCC (site AGATAGACTGG)”, the “recombinant UMI read abundance (log10)” value came out at 2.1.

With “GGATAGACATGGACCGGTTTTCCCGGTAATCCGTATTTGCC (site CGATAGACTGG)”, the “recombinant UMI read abundance (log10)” value came to 0.635.

With “GGATAGACATGGACCGGTTTTCCCGGTAATCCGTATTTGCC (site GAATAGACTGG)”, the “recombinant UMI read abundance (log10)” value amounted to 1.5.

As to “GGATAGACATGGACCGGTTTTCCCGGTAATCCGTATTTGCC (site GCATAGACTGG)”, the “recombinant UMI read abundance (log10)” value was determined as 2.11.

With “GGATAGACATGGACCGGTTTTCCCGGTAATCCGTATTTGCC (site GGAAAGACTGG)”, the “recombinant UMI read abundance (log10)” value was found to be 0.

For “GGATAGACATGGACCGGTTTTCCCGGTAATCCGTATTTGCC (site GGACAGACTGG)”, the “recombinant UMI read abundance (log10)” value was found to be 2.55.

Turning to “GGATAGACATGGACCGGTTTTCCCGGTAATCCGTATTTGCC (site GGAGAGACTGG)”, the “recombinant UMI read abundance (log10)” value amounted to 0.

As for “GGATAGACATGGACCGGTTTTCCCGGTAATCCGTATTTGCC (site GGATAAACTGG)”, the “recombinant UMI read abundance (log10)” value was determined as 2.06.

With “GGATAGACATGGACCGGTTTTCCCGGTAATCCGTATTTGCC (site GGATACACTGG)”, the “recombinant UMI read abundance (log10)” value was 1.54.

On to “GGATAGACATGGACCGGTTTTCCCGGTAATCCGTATTTGCC (site GGATAGACTAG)”, for which the “recombinant UMI read abundance (log10)” value worked out at 0.852.

As to “GGATAGACATGGACCGGTTTTCCCGGTAATCCGTATTTGCC (site GGATAGACTCG)”, the “recombinant UMI read abundance (log10)” value was 0.799.

For the sequence “GGATAGACATGGACCGGTTTTCCCGGTAATCCGTATTTGCC (site GGATAGACTGA)”, the “recombinant UMI read abundance (log10)” value was found to be 1.38.

Regarding “GGATAGACATGGACCGGTTTTCCCGGTAATCCGTATTTGCC (site GGATAGACTGC)”, the “recombinant UMI read abundance (log10)” value came out at 0.

For “GGATAGACATGGACCGGTTTTCCCGGTAATCCGTATTTGCC (site GGATAGACTGG)”, the “recombinant UMI read abundance (log10)” value was determined as 2.73.

In the case of “GGATAGACATGGACCGGTTTTCCCGGTAATCCGTATTTGCC (site GGATAGACTGT)”, the “recombinant UMI read abundance (log10)” value was determined as 1.32.

On to “GGATAGACATGGACCGGTTTTCCCGGTAATCCGTATTTGCC (site GGATAGACTTG)”, for which the “recombinant UMI read abundance (log10)” value is 1.75.

Regarding “GGATAGACATGGACCGGTTTTCCCGGTAATCCGTATTTGCC (site GGATAGCCTGG)”, the “recombinant UMI read abundance (log10)” value turned out to be 0.943.

For the sequence “GGATAGACATGGACCGGTTTTCCCGGTAATCCGTATTTGCC (site GGATAGGCTGG)”, the “recombinant UMI read abundance (log10)” value came to 1.98.

Consider “GGATAGACATGGACCGGTTTTCCCGGTAATCCGTATTTGCC (site GGATAGTCTGG)”, for which the “recombinant UMI read abundance (log10)” value is 1.62.

“GGATAGACATGGACCGGTTTTCCCGGTAATCCGTATTTGCC (site GGATATACTGG)”: the “recombinant UMI read abundance (log10)” value came out at 2.8.

Turning to “GGATAGACATGGACCGGTTTTCCCGGTAATCCGTATTTGCC (site GGATCGACTGG)”, the “recombinant UMI read abundance (log10)” value was 0.

As to “GGATAGACATGGACCGGTTTTCCCGGTAATCCGTATTTGCC (site GGATGGACTGG)”, the “recombinant UMI read abundance (log10)” value is 0.

As to “GGATAGACATGGACCGGTTTTCCCGGTAATCCGTATTTGCC (site GGATTGACTGG)”, the “recombinant UMI read abundance (log10)” value turned out to be 0.

“GGATAGACATGGACCGGTTTTCCCGGTAATCCGTATTTGCC (site GGCTAGACTGG)”: the “recombinant UMI read abundance (log10)” value came out at 1.03.

Turning to “GGATAGACATGGACCGGTTTTCCCGGTAATCCGTATTTGCC (site GGGTAGACTGG)”, the “recombinant UMI read abundance (log10)” value is 0.24.

In the case of “GGATAGACATGGACCGGTTTTCCCGGTAATCCGTATTTGCC (site GGTTAGACTGG)”, the “recombinant UMI read abundance (log10)” value came out at 1.09.

Regarding “GGATAGACATGGACCGGTTTTCCCGGTAATCCGTATTTGCC (site GTATAGACTGG)”, the “recombinant UMI read abundance (log10)” value stood at 1.89.

As for “GGATAGACATGGACCGGTTTTCCCGGTAATCCGTATTTGCC (site TGATAGACTGG)”, the “recombinant UMI read abundance (log10)” value stood at 2.09.

For the sequence “GGATAGACATGGACCGGTTTTCCCGGTAATCCGTATTTGGC (site GGATAGACTGA)”, the “recombinant UMI read abundance (log10)” value came to 1.7.

With “GGATAGACATGGACCGGTTTTCCCGGTAATCCGTATTTGGC (site GGATAGACTGC)”, the “recombinant UMI read abundance (log10)” value came out at 2.35.

As for “GGATAGACATGGACCGGTTTTCCCGGTAATCCGTATTTGGC (site GGATAGACTGG)”, the “recombinant UMI read abundance (log10)” value was found to be 0.

In the case of “GGATAGACATGGACCGGTTTTCCCGGTAATCCGTATTTGGC (site GGATAGACTGT)”, the “recombinant UMI read abundance (log10)” value was 2.32.

On to “GGATAGACATGGACCGGTTTTCCCGGTAATCCGTATTTGTC (site GGATAGACTGA)”, for which the “recombinant UMI read abundance (log10)” value was 3.09.

For the sequence “GGATAGACATGGACCGGTTTTCCCGGTAATCCGTATTTGTC (site GGATAGACTGC)”, the “recombinant UMI read abundance (log10)” value was 0.855.

For “GGATAGACATGGACCGGTTTTCCCGGTAATCCGTATTTGTC (site GGATAGACTGG)”, the “recombinant UMI read abundance (log10)” value is 2.1.

Consider “GGATAGACATGGACCGGTTTTCCCGGTAATCCGTATTTGTC (site GGATAGACTGT)”, for which the “recombinant UMI read abundance (log10)” value is 1.81.

With “GGATAGTCATGGACCGGTTTTCCCGGTAATCCGTATTTGCT (site GGATAGTCTAG)”, the “recombinant UMI read abundance (log10)” value was 3.17.
